“And” between values parts separate entries of the source, which are not always exact repeats. Equal entries are not always repeated.
Tests used:
[1] = Biodistribution and tumor uptake in vivo
[2] = test system: antigen-positive FaDu cells; test: In vitro binding to FaDu cells by FACS; details: on ice 1 hour, FITC-labeled anti-human IgG, read-out: apparent KD
Protocol: The binding of BIWA 4 antibody and BIWI 1 conjugate to antigen-positive FaDu cells was determined. Cells (1−2×10^−5) were incubated in 96-well plates with varying concentrations of antibody or conjugate on ice for 1 hour. The test article was washed from the plate and FITC-labeled anti-human IgG was added and the incubation on ice was continued in the dark for 1 hour. After washing, the cells were fixed with 1% paraformaldehyde and analyzed on a fluorescence activated cell sorter (FACS).

CD44v6 = test: Antigen binding affinity of humanised VFF-18 versions; parameters: species or system human
human FaDu SCC = test: Tumor growth delay and local control of FaDu tumors in nude mice, drug alone or with fractionated irradiation; assay type: in vivo, NMRI (nu/nu) mice; details: for Growth delay to 5 times the starting volume (tν5) / Growth delay to 10 times the starting volume (tV10): median
Protocol: (§1) BIWI 1, BIWA 4 and phosphate buffered saline (PBS) were applied intravenously (i.v.) in one of the tail veins. BIWI 1 was applied in doses of 50 μg and 100 μg DM1/kg body weight (b.w.)/d. Control animals were treated either with BIWA 4 (antibody control, 7 mg/kg b. w./d) or PBS.
(§2) Animals: The experiments were performed using 7-14 week old male and female NMRI (nu/nu) mice from the specific pathogen-free animal breeding facility of the Experimental Center of the Medical Faculty of the University of Dresden. The animal facilities and the experiments were approved according to the German animal welfare regulations. The microbiological status of the animals was regularly checked by the veterinarians of the facility. The animal rooms provided day light plus a 12 h light-12 h dark electric cycle (light-on time 07.00 a.m.) and a constant temperature of 26° C. and relative humidity of 50-60%. The animals were fed a commercial laboratory animal diet and water ad libitum. To immunosuppress the nude mice further, they were whole-body irradiated 2 days before tumor transplantation with 4 Gy using 200 kV X-rays (0.5 mm Cu) at a dose rate of about 1 Gy/min.
Tumor: FaDu is an established human hypopharyngeal squamous cell carcinoma line, kept in high passage by the American Type Culture Collection (Rockville, Md.). In nude mice FaDu grows as an undifferentiated carcinoma with a volume doubling time (VDT) between 100 mm^3 and 400 mm^3 of about 4 days. […] For the experiments small tumor pieces were transplanted subcutaneously (s.c.) into the right hindleg of anaesthetised mice.
(§3) Combination of BIWI 1 with fractionated irradiation: Local irradiations were given under ambient conditions without anaesthesia to air breathing animals (200 kV X-rays, 0.5 mm Cu, at a dose rate of 1.1 Gy/min). Up to five animals were irradiated simultaneously in specially designed jigs. For the treatments, the mice were immobilised in a plastic tube fixed on a lucite plate. The tumor-bearing leg was held positioned in the irradiation field by a foot-holder distal to the tumor. Tumor volume at the start of irradiation were around 100 mm^3. Tumors were irradiated with 5 fractions of 4 Gy in 5 days. The animals were randomized over the experimental matrix in groups of 5, aiming for about 15 animals (range 14 to 15 animals) for each treatment group. Irradiation protocols were started every second day. Animals received either BIWI 1 (50 μg DM1/kg/d), BIWI 1 (100 μg DM1/kg/d), BIWA 4 (7 mg/kg/d) or PBS two hours after each irradiation for 5 consecutive days. The report includes data obtained from a total of 59 irradiated tumors. In addition, 57 unirradiated FaDu tumors were treated with BIWI 1 (50 μg/kg/d), BIWI 1 (100 μg/kg/d), BIWA 4 (7 mg/kg/d) or PBS for 5 consecutive days.
Determinations of tumor volume and tumor growth delay: Animals were observed until the mean diameter of the untreated or recurrent tumors exceeded 12-15 mm, until death or until day 120 after end of treatment. Animals that appeared to suffer were killed before reaching these endpoints. Tumor diameters were measured every second day. Tumor volumes were determined by the formula of a rotational ellipsoid π/6×a×b^2, where a is the longest and b is the perpendicular shorter tumor axis. Conversion of tumor volumes to tumor mass (mg) was performed by a calibration curve based on excision weights. Tumor growth delay was determined from individual growth curves as the time that a regrowing tumor needed to reach 5 and 10 times the start volume (tv5, tv10).
Statistics: Medians and 95% confidence intervals (CI) of the tumor growth delay were calculated according to Sachs (Angewandte Statistik, 7. Aufl., Springer 1992). Experimental groups were compared using the Mann-Whitney-U test and a commercial software package (SPSS for Windows 9.0, SPSS Inc., 1999).

[3] = Tolerability in tumor-bearing nude mice; assay type: in vivo
Protocol: as §1, §2, §3

cells in vitro = details: free drug; cited from earlier work
[4] = target: CD44v6 on antigen-positive FaDu cells (human) (UniProt P16070); test: flow cytometry (FACS) on antigen-positive FaDu cells, FITC-labeled anti-human IgG detection; apparent KD
[5] = BIWA 4 7 mg/kg/d + fractionated irradiation
[6] = BIWA 4 7 mg/kg/d i.v. x5 days, no irradiation
[7] = BIWA 4 7 mg/kg/d x5 days + fRT (5x4 Gy)
[8] = 50 μg DM1/kg b.w./d alone, no irradiation
[9] = 50 μg DM1/kg/d + fractionated irradiation
[10] = 50 ug DM1/kg/d i.v. x5 days, no irradiation
[11] = 50 ug DM1/kg/d x5 days + fRT (5x4 Gy)
[12] = 100 ug DM1/kg/d i.v. x5 days, no irradiation
[13] = 100 ug DM1/kg/d x5 days + fRT (5x4 Gy)

Sequence of CD44v6 (P16070 386-428 limits assumed): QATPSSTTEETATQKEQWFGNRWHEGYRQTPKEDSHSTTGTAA

Molecule: BIWA 4: Humanised version of antibody VFF-18, CD44v6 specific; light chains SEQ ID NO:4, heavy chains SEQ ID NO:6
- Biodistribution and tumor uptake in vivo [1]: very favorable biodistribution and tumor uptake in vivo
- Kd [2]: 1 nM
- Antigen binding affinity (comparative) (CD44v6): significantly lower antigen binding affinity as its parent antibody VFF-18
- Local tumor control rate at day 120 (human FaDu SCC; [5]): 0/14
- estimated dose modifying factor (human FaDu SCC; [5]): 1.2
- Growth delay compared with irradiated controls (human FaDu SCC; BIWA 4 7 mg/kg/d + irradiation 20 Gy in 5 fractions): slightly but significant longer growth delay
- Tumor growth compared with control tumors treated with PBS (human FaDu SCC; BIWA 4 7 mg/kg/d alone, no irradiation): did not alter tumor growth
- Growth delay to 5 times the starting volume (tν5) (human FaDu SCC; [6]): 10,8 d
- Growth delay to 10 times the starting volume (tV10) (human FaDu SCC; [6]): 16.0 days
- Growth delay to 5 times the starting volume (tν5) (human FaDu SCC; [7]): 30.5 days
- Growth delay to 10 times the starting volume (tV10) (human FaDu SCC; [7]): 40.0 days
- Toxicity observed after application ([3]; i.v. x5 days): No toxicity was observed
- Body weight during the treatment ([3]; irradiated and unirradiated animals, versus PBS group): minor and temporary changes without significant differences

Molecule: COc1cc2cc(c1Cl)N(C)C(=O)C[C@H](OC(=O)[C@H](C)N(C)C(=O)CCS)[C@]1(C)O[C@H]1[C@H](C)[C@@H]1C[C@@](O)(NC(=O)O1)[C@H](OC)/C=C/C=C(\C)C2 [DM1, N^2′-deacetyl-N^2′-(3-mercapto-1-oxopropyl)-Maytansine]
- concentration toxic to cells in vitro (cells in vitro): approximately 10^−10 M

Molecule: BIWI 1
- Kd [2]: 1.8 nM
- tv5 and tv10 compared with irradiated tumors which received PBS or BIWA 4 (human FaDu SCC; 50 μg DM1/kg b.w./d + irradiation 20 Gy in 5 fractions): clear-cut longer
- tv5 compared with controls (human FaDu SCC; [8]): did not prolong
- tv10 compared with controls (human FaDu SCC; [8]): slightly but significant longer
- Effect of combined treatment with fractionated irradiation (radiosensitizing efficacy) (human FaDu SCC; [9]): supra-additive
- Local tumor control rate at day 120 (human FaDu SCC; [9]): 7 out of 15
- estimated dose modifying factor (human FaDu SCC; [9]): 4.1
- Local tumor control rate at day 120 (human FaDu SCC; 50 μg DM1/kg/d + fractionated irradiation, listed as BIWI1): 7/15
- Growth delay to 5 times the starting volume (tν5) (human FaDu SCC; [10]): 13.5 days
- Growth delay to 10 times the starting volume (tV10) (human FaDu SCC; [10]): 26.0 days
- Growth delay to 5 times the starting volume (tν5) (human FaDu SCC; [11]): 107.5 days
- Growth delay to 10 times the starting volume (tV10) (human FaDu SCC; [11]): >120 days
- tv5 and tv10 compared with irradiated tumors which received PBS or BIWA 4 (human FaDu SCC; 100 μg DM1/kg b.w./d + irradiation 20 Gy in 5 fractions): significant longer
- Tv5 and tv10 compared to controls (human FaDu SCC; 100 μg DM1/kg b.w./d alone, no irradiation): substantially and significantly prolonged
- estimated dose modifying factor (human FaDu SCC; 100 μg DM1/kg/d + fractionated irradiation): > 4.5
- Local tumor control rate at day 120 (human FaDu SCC; 100 μg DM1/kg/d + fractionated irradiation, 4 further controlled animals censored earlier): 6 out of 15 and 6/15
- Growth delay to 5 times the starting volume (tν5) (human FaDu SCC; [12]): 27.5 days
- Growth delay to 10 times the starting volume (tV10) (human FaDu SCC; [12]): 33.5 days
- Growth delay to 5 times the starting volume (tν5) (human FaDu SCC; [13]): >120 days
- Growth delay to 10 times the starting volume (tV10) (human FaDu SCC; [13]): >120 days
- estimated kill of clonogenic FaDu cells (human FaDu SCC; 5x 100 μg DM1/kg/d alone): at least two logs
- Toxicity observed after application ([3]; i.v. x5 days): No toxicity was observed
- Tolerability ([3]; i.v. x5 days, irradiated and unirradiated animals): well tolerated
- Body weight during the treatment ([3]; mouse, in vivo): minor and temporary changes without significant differences

B1: BIWA 4 (antibody, human IgG1, kappa, V domains shown)
VH: EVQLVESGGGLVKPGGSLRLSCAASGFTFSSYDMSWVRQAPGKGLEWVSTISSGGSYTYYLDSIKGRFTISRDNAKNSLYLQMNSLRAEDTAVYYCARQGLDYWGRGTLVTVSS
VL: EIVLTQSPATLSLSPGERATLSCSASSSINYIYWYQQKPGQAPRLLIYLTSNLASGVPARFSGSGSGTDFTLTISSLEPEDFAVYYCLQWSSNPLTFGGGTKVEIKR
- Kd [4]: 1 nM

B2: BIWI 1 (antibody, V domains shown)
VH: EVQLVESGGGLVKPGGSLRLSCAASGFTFSSYDMSWVRQAPGKGLEWVSTISSGGSYTYYLDSIKGRFTISRDNAKNSLYLQMNSLRAEDTAVYYCARQGLDYWGRGTLVTVSS
VL: EIVLTQSPATLSLSPGERATLSCSASSSINYIYWYQQKPGQAPRLLIYLTSNLASGVPARFSGSGSGTDFTLTISSLEPEDFAVYYCLQWSSNPLTFGGGTKVEIKR
modifications: maytansinoid DM1 linked by a disulfide bond through the SPP-derived thiopentanoate linker to amino functions of the antibody; DM1/MAb ratio 3.1 (average for the whole antibody; sites not stated)
- Kd [4]: 1.8 nM
